The test system of this data set is women with diabetes mellitus type II. As to the kind of experiment: Clinical tests of women with diabetes mellitus type II treated with ketoconazole. In kind it is in vivo, human. The settings on record: for Serum-ASAT / Serum-ALAT / GIR (glucose infusion rate during euglycemic glucose clamp), indicating insulin sensitivity / Fasting serum total cholesterol / Diastolic blood pressure measured after 5 min. in supine position, 2 measurements averaged / Systolic blood pressure measured after 5 min. in supine position, 2 measurements averaged / Fasting blood glucose: after treatment. As for the experimental part:
We have investigated a group of people with diabetes mellitus type II.
Group 1 consists of 3 patients (mean age: 46 years) treated with ketoconazole for 2 weeks, administered orally 22:00 in the evening in the dose of 400 mg.
Group 2 consists of 5 patients (mean age: 51 years) treated with ketoconazole for 6 weeks, administered orally 22:00 in the evening in the dose of 400 mg. Results are expressed as mean values within groups.

[1] abbreviates: diabetes mellitus type II patients, after vs before treatment.

Several values for one entry are separate records, joined by “and”; a condition that tells them apart may be missing. Equal entries are not always repeated. Entries after “also recorded” stand apart in the source; their conditions may differ.

With `CC(=O)N1CCN(c2ccc(OCC3COC(Cn4ccnc4)(c4ccc(Cl)cc4Cl)O3)cc2)CC1` (stereo not shown) [ketoconazole], the Serum-ASAT stood at 0.33 μkat/L (Group 1: 400 mg orally 22:00 for 2 weeks, group mean (before: 0.36)) and 0.25 μkat/L (Group 2: 400 mg orally 22:00 for 6 weeks, group mean (before: 0.26)). The Serum-ALAT is 0.52 μkat/L (Group 1: 400 mg orally 22:00 for 2 weeks, group mean (before: 0.61)) and 0.37 μkat/L (Group 2: 400 mg orally 22:00 for 6 weeks, group mean (before: 0.40)). In addition, the “GIR (glucose infusion rate during euglycemic glucose clamp), indicating insulin sensitivity” value is on record as 1.85 mg glucose per minute divided by lean body mass (Group 1: 400 mg orally 22:00 for 2 weeks, group mean (before: 0.9)) and 4.32 mg glucose per minute divided by lean body mass (Group 2: 400 mg orally 22:00 for 6 weeks, group mean (before: 2.97)). Moreover, the “Fasting serum total cholesterol” value was found to be 5.67 mmol/L (Group 1: 400 mg orally 22:00 for 2 weeks, group mean (before: 5.80)) and 4.10 mmol/L (Group 2: 400 mg orally 22:00 for 6 weeks, group mean (before: 4.80)). For the same molecule, the “Diastolic blood pressure measured after 5 min. in supine position, 2 measurements averaged” value is listed as 70 mm Hg (Group 1: 400 mg orally 22:00 for 2 weeks, group mean (before: 70)) and 72 mm Hg (Group 2: 400 mg orally 22:00 for 6 weeks, group mean (before: 75)). Besides, the “Systolic blood pressure measured after 5 min. in supine position, 2 measurements averaged” value runs as follows: (Group 1: 400 mg orally 22:00 for 2 weeks, group mean (before: 140)) 135 mm Hg; (Group 2: 400 mg orally 22:00 for 6 weeks, group mean (before: 125)) 123 mm Hg. Also, the Fasting blood glucose (Group 1: 3 patients, 400 mg orally 22:00 for 2 weeks, group mean (before: 10.20)) was 8.77 mmol/L and the Fasting blood glucose (Group 2: 5 patients, 400 mg orally 22:00 for 6 weeks, group mean (before: 7.20)) was 7.10 mmol/L. Besides, the “Effect on blood pressure (in words)” value under setting [1] is listed as “decreasing blood pressure values”. Moreover, the “Effect on insulin sensitivity / insulin resistance (in words), euglycemic glucose clamp” value under setting [1] is listed as “a reduction of the insulin insensitivity (resistance); also recorded: improved insulin sensitivity; also recorded: a remarkable improvement of insulin sensitivity”. For the same molecule, the “Effect on plasma cholesterol levels (in words)” value under setting [1] is given as “Reduced cholesterol levels in the plasma”. The “Effect on blood glucose (in words)” value (diabetes mellitus type II patients, after vs before treatment for 2 and 6 weeks, fasting or 2 hours after i.v. glucose infusion) is listed as “lower blood glucose after treatment compared to before treatment; also recorded: a decrease in blood glucose”. Also, the “Blood glucose 2 hours after start of an i.v. glucose infusion” value (human, in vivo) is 7.90 mmol/L and 5.76 mmol/L.

The values above are taken from US7960410B2, “Method for treating insulin resistance, abdominal obesity, hypertension, hyperinsulinemia, and elevated blood lipids with a cortisol inhibitor” (Cortendo AB, priority 1994, dated 2011).
